According to patent US10526316B2, “Quinoxaline and pyridopyrazine derivatives as PI3Kβ inhibitors” (Janssen Pharmaceutica NV, priority 2015, dated 2020):
Read-outs that look alike come from different tables or passages of the source.

Experiments:
PI3Kβ = target: T1, PI3Kβ (Homo sapiens, UniProt P42338); assay: Enzyme binding assay (KINOMEscan, DiscoveRx); details: PIK3Cβ_h, read-out: Kd PIK3Cβ_h
T1 construct: purchased DiscoveRx Corporation, San Diego (contract service, KINOMEscan)
Outline: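 Kinase binding affinities were measured with KINOMEscan technology. Results are given as Kd, the inhibitor binding constant, in nM.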

PI3Kδ = target: T2, PI3Kδ (Homo sapiens, UniProt O00329); assay: Enzyme binding assay (KINOMEscan, DiscoveRx); details: PIK3Cδ_h
T2 construct: purchased DiscoveRx Corporation, San Diego (contract service, KINOMEscan)
T2 sequence (O00329 1-1044): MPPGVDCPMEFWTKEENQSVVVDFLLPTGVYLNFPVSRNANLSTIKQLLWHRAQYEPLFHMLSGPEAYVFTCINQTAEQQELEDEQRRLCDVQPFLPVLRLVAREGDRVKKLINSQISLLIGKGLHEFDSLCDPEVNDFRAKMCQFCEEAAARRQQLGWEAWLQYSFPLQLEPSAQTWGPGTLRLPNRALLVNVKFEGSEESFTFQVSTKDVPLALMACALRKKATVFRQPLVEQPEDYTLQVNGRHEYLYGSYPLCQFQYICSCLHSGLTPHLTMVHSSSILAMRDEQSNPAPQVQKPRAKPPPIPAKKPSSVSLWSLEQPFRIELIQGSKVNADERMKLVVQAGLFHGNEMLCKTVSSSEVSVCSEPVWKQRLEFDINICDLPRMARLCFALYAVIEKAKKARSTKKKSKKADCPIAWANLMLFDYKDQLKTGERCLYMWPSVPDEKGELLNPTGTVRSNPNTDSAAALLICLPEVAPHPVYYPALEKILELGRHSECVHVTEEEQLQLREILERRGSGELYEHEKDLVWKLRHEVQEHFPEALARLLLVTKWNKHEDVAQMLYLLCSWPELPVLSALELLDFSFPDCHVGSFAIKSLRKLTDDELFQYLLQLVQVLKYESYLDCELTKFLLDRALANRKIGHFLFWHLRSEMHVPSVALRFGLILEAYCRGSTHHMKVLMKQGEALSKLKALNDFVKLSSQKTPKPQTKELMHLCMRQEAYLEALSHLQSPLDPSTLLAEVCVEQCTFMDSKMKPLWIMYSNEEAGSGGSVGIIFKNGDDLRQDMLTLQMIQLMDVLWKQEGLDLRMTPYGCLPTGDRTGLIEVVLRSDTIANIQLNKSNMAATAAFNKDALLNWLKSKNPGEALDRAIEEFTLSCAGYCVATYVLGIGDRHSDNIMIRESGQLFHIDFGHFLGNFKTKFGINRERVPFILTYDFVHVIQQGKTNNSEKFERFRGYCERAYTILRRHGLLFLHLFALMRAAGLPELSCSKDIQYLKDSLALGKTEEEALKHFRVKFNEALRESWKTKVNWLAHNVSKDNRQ
Outline: (§1)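 Binding affinities were measured on the KINOMEscan platform.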

kinase enzymes [1] = target: T3, kinase enzymes (Homo sapiens, UniProt P42336); assay: Enzyme binding assay (KINOMEscan, DiscoveRx), further kinases of Table A; details: PIK3Cα_h
T3 construct: purchased DiscoveRx Corporation, San Diego (contract service, KINOMEscan)
T3 sequence (P42336 whole entry): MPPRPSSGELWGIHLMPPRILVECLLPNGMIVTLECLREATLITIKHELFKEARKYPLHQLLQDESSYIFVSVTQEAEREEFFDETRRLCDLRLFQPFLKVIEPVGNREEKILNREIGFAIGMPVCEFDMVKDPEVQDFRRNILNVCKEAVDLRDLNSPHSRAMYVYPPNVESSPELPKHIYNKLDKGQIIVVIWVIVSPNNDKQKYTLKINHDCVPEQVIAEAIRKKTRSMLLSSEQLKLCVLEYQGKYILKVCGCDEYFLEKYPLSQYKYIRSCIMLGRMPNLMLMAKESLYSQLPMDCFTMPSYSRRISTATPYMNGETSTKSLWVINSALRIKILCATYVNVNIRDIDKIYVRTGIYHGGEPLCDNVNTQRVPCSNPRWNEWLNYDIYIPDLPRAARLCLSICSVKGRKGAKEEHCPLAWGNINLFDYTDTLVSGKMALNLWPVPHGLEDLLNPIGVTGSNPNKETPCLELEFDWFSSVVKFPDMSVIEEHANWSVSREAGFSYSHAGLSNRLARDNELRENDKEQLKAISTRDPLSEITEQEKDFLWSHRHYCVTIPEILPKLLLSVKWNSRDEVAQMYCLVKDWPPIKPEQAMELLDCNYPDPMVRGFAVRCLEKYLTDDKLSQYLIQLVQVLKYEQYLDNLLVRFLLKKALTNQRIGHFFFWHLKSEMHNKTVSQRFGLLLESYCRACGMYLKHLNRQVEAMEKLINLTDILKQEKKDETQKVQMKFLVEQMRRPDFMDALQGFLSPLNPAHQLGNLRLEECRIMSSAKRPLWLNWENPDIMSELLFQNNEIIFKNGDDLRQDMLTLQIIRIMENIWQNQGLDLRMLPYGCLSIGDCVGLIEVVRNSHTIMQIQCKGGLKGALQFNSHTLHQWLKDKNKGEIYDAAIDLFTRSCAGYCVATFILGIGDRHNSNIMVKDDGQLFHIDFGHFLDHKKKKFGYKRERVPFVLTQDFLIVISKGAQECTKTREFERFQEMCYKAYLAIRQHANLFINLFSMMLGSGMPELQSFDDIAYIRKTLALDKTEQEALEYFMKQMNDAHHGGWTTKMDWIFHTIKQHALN
Outline: as §1

kinase enzymes [2] = target: T4, kinase enzymes (Homo sapiens, UniProt P42345); assay: as above; details: MTOR_h
T4 construct: purchased DiscoveRx Corporation, San Diego (contract service, KINOMEscan)
Outline: as §1

kinase enzymes [3] = target: T5, kinase enzymes (Homo sapiens, UniProt P48736); assay: as above; details: PIK3Cγ_h
T5 construct: purchased DiscoveRx Corporation, San Diego (contract service, KINOMEscan)
T5 sequence (P48736 whole entry): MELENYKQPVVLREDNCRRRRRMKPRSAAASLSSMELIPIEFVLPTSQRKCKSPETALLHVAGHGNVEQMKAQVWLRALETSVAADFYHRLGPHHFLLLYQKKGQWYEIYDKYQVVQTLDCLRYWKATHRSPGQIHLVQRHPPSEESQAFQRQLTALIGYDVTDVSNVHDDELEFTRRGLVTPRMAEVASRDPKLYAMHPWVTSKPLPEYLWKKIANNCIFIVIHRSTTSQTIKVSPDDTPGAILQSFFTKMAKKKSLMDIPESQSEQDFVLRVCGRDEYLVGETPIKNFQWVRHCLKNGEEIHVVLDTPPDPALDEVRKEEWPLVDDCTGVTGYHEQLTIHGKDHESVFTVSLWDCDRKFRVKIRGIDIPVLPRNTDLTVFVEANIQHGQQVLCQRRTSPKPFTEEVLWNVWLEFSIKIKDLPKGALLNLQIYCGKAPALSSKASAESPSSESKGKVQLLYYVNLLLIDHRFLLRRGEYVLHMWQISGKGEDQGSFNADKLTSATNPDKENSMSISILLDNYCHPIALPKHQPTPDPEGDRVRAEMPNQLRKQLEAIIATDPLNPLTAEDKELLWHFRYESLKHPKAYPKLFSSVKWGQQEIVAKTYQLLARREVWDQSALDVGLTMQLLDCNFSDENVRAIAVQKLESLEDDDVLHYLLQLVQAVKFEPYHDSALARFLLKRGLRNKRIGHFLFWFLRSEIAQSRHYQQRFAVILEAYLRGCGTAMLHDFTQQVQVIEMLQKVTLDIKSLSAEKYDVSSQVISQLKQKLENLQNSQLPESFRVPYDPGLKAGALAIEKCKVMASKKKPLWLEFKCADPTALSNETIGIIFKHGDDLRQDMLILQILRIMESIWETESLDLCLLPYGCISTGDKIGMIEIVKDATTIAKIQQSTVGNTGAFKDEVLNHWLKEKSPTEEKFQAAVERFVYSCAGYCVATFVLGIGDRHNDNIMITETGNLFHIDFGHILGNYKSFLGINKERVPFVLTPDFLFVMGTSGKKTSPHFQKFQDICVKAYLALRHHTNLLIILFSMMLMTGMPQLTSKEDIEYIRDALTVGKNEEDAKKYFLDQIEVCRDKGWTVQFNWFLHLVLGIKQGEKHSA
Outline: as §1

[4] = tested on: Akt phosphorylated at Ser473 in PC-3 cells; assay: Cellular assay: phosphorylation of Akt at Ser473 in PC-3 cells (MSD ELISA); type: cell-based; details: PC-3 cells, 60 min compound incubation, MSD ELISA, read-out: IC50 pAkt_S473
Outline: (§2)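 Phospho-Akt in whole-cell lysates is quantified by electrochemiluminescent immunoassay using phospho-site capture and total-Akt detection antibodies.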

[5] = tested on: Akt phosphorylated at Thr308 in PC-3 cells; assay: Cellular assay: phosphorylation of Akt at Thr308 in PC-3 cells (MSD ELISA); type: cell-based; details: PC-3 cells, 60 min compound incubation, MSD ELISA, read-out: IC50 pAkt_Thr308
Outline: as §2

T1 sequence (P42338 whole entry): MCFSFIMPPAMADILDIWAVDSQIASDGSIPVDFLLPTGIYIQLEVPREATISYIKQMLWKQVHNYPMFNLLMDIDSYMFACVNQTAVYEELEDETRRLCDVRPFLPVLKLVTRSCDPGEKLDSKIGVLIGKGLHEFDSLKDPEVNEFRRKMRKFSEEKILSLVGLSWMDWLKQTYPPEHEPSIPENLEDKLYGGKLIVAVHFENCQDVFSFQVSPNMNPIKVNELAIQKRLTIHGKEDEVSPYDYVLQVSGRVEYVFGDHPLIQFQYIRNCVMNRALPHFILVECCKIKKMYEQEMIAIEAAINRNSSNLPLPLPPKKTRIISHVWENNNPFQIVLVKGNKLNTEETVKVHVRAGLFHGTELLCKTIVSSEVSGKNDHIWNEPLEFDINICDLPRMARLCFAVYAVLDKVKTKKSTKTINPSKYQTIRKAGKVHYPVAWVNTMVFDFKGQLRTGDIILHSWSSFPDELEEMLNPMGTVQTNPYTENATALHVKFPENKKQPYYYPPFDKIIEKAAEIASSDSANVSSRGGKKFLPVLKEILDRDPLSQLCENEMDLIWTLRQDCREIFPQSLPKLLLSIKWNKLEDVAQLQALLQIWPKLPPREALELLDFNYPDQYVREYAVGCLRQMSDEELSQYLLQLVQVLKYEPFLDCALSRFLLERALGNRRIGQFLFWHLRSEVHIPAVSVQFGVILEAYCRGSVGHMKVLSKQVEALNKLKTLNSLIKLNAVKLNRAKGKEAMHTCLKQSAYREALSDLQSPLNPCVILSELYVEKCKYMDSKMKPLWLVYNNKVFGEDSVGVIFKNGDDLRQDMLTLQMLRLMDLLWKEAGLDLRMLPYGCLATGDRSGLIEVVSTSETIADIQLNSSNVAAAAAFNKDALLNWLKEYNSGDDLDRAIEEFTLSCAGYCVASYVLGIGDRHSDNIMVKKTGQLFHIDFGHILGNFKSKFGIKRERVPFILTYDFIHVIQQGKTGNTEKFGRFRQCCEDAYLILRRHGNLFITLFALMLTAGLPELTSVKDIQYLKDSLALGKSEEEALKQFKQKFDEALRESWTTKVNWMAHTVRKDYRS

| Kd (PI3Kβ) [nM] | Kd (PI3Kδ) [nM] | Kd (kinase enzymes [1]) [nM] | Kd (kinase enzymes [2]) [nM] | Kd (kinase enzymes [3]) [nM] | IC50 ([4]; Homo sapiens, PC-3, 1 h) [nM] | IC50 ([5]; Homo sapiens, PC-3, 1 h) [nM] | melting point [°C] | IC50 [4] [nM] | IC50 [5] [nM] | Compound |
| --- | --- | --- | --- | --- | --- | --- | --- | --- | --- | --- |
| 1 | 35 | 56 | 17400 | 309 | 7 | 4 | 80 |  |  | CNC(=O)c1cc(C2CCCN2c2cc(F)cc(F)c2)c2nc(N3CCOCC3)cnc2c1 (single isomer, unassigned) [Compound 40] |
| 316 | 7240 | 4680 | > 30200 | 1100 |  |  | 80 | > 513 | 331 | O=C(c1cc(C2CCCN2c2cc(F)cc(F)c2)c2nc(N3CCOCC3)cnc2c1)N1CCS(=O)(=O)CC1 (single isomer, unassigned) [Compound 43] |
| 0.2 | 32 | 41 | 14800 | 759 | 3 | 4 | 80 |  |  | O=C(c1cc(C2CCCN2c2cc(F)cc(F)c2)c2nc(N3CCOCC3)cnc2c1)N1CC2(COC2)C1 (single isomer, unassigned) [Compound 47] |
| 0.4 | 31 | 49 | 25100 | 525 |  |  | 80 | ~5 | 4 | CN1CCN(C(=O)c2cc(C3CCCN3c3cc(F)cc(F)c3)c3nc(N4CCOCC4)cnc3c2)CC1 (single isomer, unassigned) [Compound 57] |
| 2 | 148 | 339 | 19100 | 1100 | ~45 | 23 | 80 |  |  | C[C@H](CO)NC(=O)c1cc(C2CCCN2c2cc(F)cc(F)c2)c2nc(N3CCOCC3)cnc2c1 (single isomer, unassigned) [Compound 70] |
| 0.3 | 100 | 363 | > 30200 | 646 | ~76 | ~51 | 80 |  |  | OC[C@@H]1CCCN1Cc1cc(C2CCCN2c2cc(F)cc(F)c2)c2nc(N3CCOCC3)cnc2c1 (single isomer, unassigned) [Compound 77] |
| 1 | 129 | 170 | 1290 | 562 | > 513 | > 513 | 180 |  |  | CC(Nc1cc(F)cc(F)c1)c1cc(C(=O)O)cc2ncc(N3CCOCC3)nc12 (single isomer, unassigned) [Compound 83b] |
| 158 | 4900 | 3090 | 3090 | 2690 |  |  | 157 | > 513 | > 513 | CC(Nc1cc(F)cc(F)c1)c1cc(C(=O)O)cc2ncc(N3CCOCC3)nc12 (single isomer, unassigned) [Compound 83c] |
| 15 | 537 | 3470 | > 30200 | 21400 | 513 | 263 | 76 |  |  | CC(Oc1cccc(F)c1)c1cc(C(=O)N2CCC[C@H]2CO)cc2ncc(N3CCOCC3)nc12 (single isomer, unassigned) [Compound 86] |
| 1380 | 9550 | 22900 | > 30200 | > 30200 |  |  | 74 | > 513 | > 513 | CC(Oc1cccc(F)c1)c1cc(C(=O)N2CCC[C@H]2CO)cc2ncc(N3CCOCC3)nc12 (single isomer, unassigned) [Compound 87] |
| 0.1 | 29 | 79 | 21400 | 178 |  | 12 | 80 | 8 |  | OC(CN1CCC1)c1cc(C2CCCN2c2cc(F)cc(F)c2)c2nc(N3CCOCC3)cnc2c1 (single isomer, unassigned) [Compound 94] |
| 0.2 | 31 | 245 | > 30200 | 398 | 22 | 23 | 80 |  |  | OCCCNCc1cc(C2CCCN2c2cc(F)cc(F)c2)c2nc(N3CCOCC3)cnc2c1 (single isomer, unassigned) [Compound 102] |
| 6 | 1000 | 3160 | > 30200 | 3310 |  |  | 80 | 105 | 62 | Cc1cc(C2CCCN2c2cc(F)cc(F)c2)c2nc(N3CCOCC3)cnc2c1 (single isomer, unassigned) [Compound 106] |
| 363 | 23400 | > 30200 | > 30200 | > 30200 |  |  | 80 to 90 | > 513 | > 513 | Cc1cc(C2CCCN2c2cc(F)cc(F)c2)c2nc(N3CCOCC3)cnc2c1 (single isomer, unassigned) [Compound 107] |
| 1020 | > 30200 | > 30200 | > 30200 | > 10000 |  |  | 307 | > 513 | > 513 | CCN1CCN(C(=O)c2cc(C(C)Nc3cccc(F)c3)c3nc(N4CCOCC4)cnc3c2)CC1 (single isomer, unassigned) [Compound 113] |
| 1 | 186 | 1620 | > 30200 | 6920 |  |  | 303 | 50 | 18 | CCN1CCN(C(=O)c2cc(C(C)Nc3cccc(F)c3)c3nc(N4CCOCC4)cnc3c2)CC1 (single isomer, unassigned) [Compound 114] |
| 2880 | ≥ 30200 | > 30200 | > 30200 | > 30200 |  |  | 332 | > 513 | > 513 | CC(Nc1cccc(F)c1)c1cc(C(=O)N2CCC[C@H]2CO)cc2ncc(N3CCOCC3)nc12 (single isomer, unassigned) [Compound 116] |
| 32 | 2290 | 6460 | 25700 | 21900 | ~457 | 331 | 80 |  |  | Cc1cccc(N(C)C(C)c2cc(C(=O)N(C)C)cc3ncc(N4CCOCC4)nc23)c1 (single isomer, unassigned) [Compound 127] |
| 0.1 | 9 | 138 | > 30200 | 501 |  |  | 80 | 1 | 1 | CNCCN(C)C(=O)c1cc(C(C)Nc2cc(F)cc(F)c2)c2nc(N3CCOCC3)cnc2c1 (single isomer, unassigned) [Compound 137] |
| 5130 | 15800 | 14800 | > 30200 | 25100 | 479 | > 513 | 80 |  |  | CC(c1cc(C(=O)N(C)C)cc2ncc(N3CCOCC3)nc12)N(C)c1cccc(Cl)c1 (single isomer, unassigned) [Compound 140] |
| 490 | 14800 | 20900 | 25100 | 7760 |  |  | 90 | > 513 | > 513 | CC(Nc1cc(F)cc(F)c1)c1cc(CO)cc2ncc(N3CCOCC3)nc12 (single isomer, unassigned) [Compound 154b] |
